Assays:
Assay in all cases: Receptor-binding experiment using cells expressing prostanoid receptor subtypes (3H-PGE2 binding, CHO cell membrane)
EP3 receptor = target: T1, EP3 receptor (Mus musculus, UniProt P30557); details: 3H-PGE2 (2.5 nM) binding inhibition, membrane of CHO cells expressing mouse EP3; Ki=IC50/(1+([C]/Kd))
T1 construct: expressed in transfected cells; host or cells: CHO cells
T1 sequence (P30557 1-365): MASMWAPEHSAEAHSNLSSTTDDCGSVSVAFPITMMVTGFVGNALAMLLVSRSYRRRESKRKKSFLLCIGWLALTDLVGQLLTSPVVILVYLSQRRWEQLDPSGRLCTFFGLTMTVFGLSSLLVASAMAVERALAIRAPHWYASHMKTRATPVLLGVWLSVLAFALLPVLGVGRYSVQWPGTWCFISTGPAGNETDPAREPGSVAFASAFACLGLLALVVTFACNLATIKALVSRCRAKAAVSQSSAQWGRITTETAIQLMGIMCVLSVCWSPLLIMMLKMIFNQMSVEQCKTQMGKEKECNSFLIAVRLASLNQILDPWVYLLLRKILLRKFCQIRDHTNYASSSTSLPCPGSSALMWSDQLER
Procedure: (§1) The pharmacological activity is confirmed by the following receptor-binding experiment by using cells expressing prostanoid receptor subtypes. • (i) Receptor-binding experiment by using cells expressing prostanoid receptor subtypes In accordance with the method of Sugimoto et al. [J. Biol. Chem., 267, 6463-6466 (1992)], CHO cells respectively expressing prostanoid receptor subtypes (mouse EP1, EP2, EP3, and EP4) were prepared to give membrane preparations.
(§2) Each membrane fraction (50 μl) thus prepared and a reaction solution (150 μl) containing ^3H-PGE2 were incubated at room temperature for 1 hour. After ceasing the reaction with an ice-cooled buffer (3 ml), the bound ^3H-PGE2 was trapped in a glass filter (GF/B) by filtering with suction under reduced pressure. Then the bound radioactivity was measured with a liquid scintillator.
(§3) Kd value and Bmax value were determined by Scatchard plots [Ann. N.Y. Acad. Sci., 51, 660 (1949)]. Nonspecific bond was determined as bond in the presence of unlabeled PGE2 in excess (2.5 μM). The ^3H-PGE2-binding inhibitory effects of the invention compounds were measured by adding ^3H-PGE2 (2.5 nM) and the invention compounds at various concentrations. In every reaction, the following buffer was employed.
(§4) Buffer: potassium phosphate (10 mM, pH 6.0), EDTA (1 mM), MgCl2 (10 mM), NaCl (0.1 M).
(§5) The dissociation constant Ki (μM) of each compound was determined in accordance with the following formula. […] Ki=IC50/(1+([C]/Kd))

EP4 receptor = target: T2, EP4 receptor (Mus musculus, UniProt P32240); details: 3H-PGE2 (2.5 nM) binding inhibition, membrane of CHO cells expressing mouse EP4; Ki=IC50/(1+([C]/Kd))
T2 construct: expressed in transfected cells; host or cells: CHO cells
T2 sequence (P32240 whole entry): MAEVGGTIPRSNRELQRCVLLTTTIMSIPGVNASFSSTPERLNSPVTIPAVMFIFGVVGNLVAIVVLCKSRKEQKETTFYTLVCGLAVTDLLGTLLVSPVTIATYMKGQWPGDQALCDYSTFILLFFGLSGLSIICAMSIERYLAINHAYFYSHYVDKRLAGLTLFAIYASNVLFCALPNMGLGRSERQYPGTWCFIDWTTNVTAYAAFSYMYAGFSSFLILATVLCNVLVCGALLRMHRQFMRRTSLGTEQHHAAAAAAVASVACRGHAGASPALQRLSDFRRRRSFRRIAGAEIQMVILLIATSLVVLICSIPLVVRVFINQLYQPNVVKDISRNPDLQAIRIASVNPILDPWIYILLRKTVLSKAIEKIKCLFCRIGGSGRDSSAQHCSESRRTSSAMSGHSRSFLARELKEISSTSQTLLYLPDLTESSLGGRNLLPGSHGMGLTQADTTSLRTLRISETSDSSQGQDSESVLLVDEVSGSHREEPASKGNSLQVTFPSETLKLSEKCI
Procedure: as §1, §2, §3, §4, §5

EP1 receptor = target: T3, EP1 receptor (Mus musculus, UniProt P35375); details: 3H-PGE2 (2.5 nM) binding inhibition, membrane of CHO cells expressing mouse EP1; Ki=IC50/(1+([C]/Kd))
T3 construct: expressed in transfected cells; host or cells: CHO cells
T3 sequence (P35375 1-405): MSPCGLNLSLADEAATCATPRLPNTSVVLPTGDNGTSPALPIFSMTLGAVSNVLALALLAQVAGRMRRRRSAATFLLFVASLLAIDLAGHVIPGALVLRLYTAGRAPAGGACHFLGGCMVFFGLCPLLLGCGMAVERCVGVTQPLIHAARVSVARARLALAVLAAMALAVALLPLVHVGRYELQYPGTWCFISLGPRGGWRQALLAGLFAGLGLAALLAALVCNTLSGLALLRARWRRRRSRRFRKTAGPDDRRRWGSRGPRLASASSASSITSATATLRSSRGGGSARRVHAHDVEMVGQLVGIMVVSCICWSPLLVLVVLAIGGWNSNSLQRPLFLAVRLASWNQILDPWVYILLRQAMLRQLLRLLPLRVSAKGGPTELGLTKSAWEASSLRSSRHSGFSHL
Procedure: as §1, §2, §3, §4, §5

EP2 receptor = target: T4, EP2 receptor (Mus musculus, UniProt Q62053); details: 3H-PGE2 (2.5 nM) binding inhibition, membrane of CHO cells expressing mouse EP2; Ki=IC50/(1+([C]/Kd))
T4 construct: expressed in transfected cells; host or cells: CHO cells
T4 sequence (Q62053 whole entry): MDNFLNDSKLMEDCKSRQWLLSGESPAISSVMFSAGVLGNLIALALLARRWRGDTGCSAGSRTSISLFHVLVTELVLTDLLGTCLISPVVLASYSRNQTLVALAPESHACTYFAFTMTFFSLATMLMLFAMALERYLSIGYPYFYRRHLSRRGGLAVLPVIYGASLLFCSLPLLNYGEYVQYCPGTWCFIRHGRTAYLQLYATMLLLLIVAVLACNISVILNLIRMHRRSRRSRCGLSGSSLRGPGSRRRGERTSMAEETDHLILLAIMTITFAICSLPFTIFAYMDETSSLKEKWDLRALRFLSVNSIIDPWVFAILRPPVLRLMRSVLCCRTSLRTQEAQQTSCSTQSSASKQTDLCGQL
Procedure: as §1, §2, §3, §4, §5

Ki (EP3 receptor): 270 nM | Ki (EP4 receptor): 38 nM | Ki (EP1 receptor): > 10000 nM | Ki (EP2 receptor): > 10000 nM
SMILES: CSCc1ccc(CCCC(=O)O)c(NC(=O)C(C)c2cccc3ccccc23)c1 (stereo not shown) [Example 8(13), 4-(2-((2-(naphthalen-1-yl)propanoyl)amino)-4-methylthiomethylphenyl)butanoic acid]
